Tested on: hair follicles and sebaceous glands of the dorsal skin
Test: Delivery of Nile Red fluorescent dye into hair follicles and sebaceous glands by delivery agents
Parameters: species or system Sprague Dawley rat; Fluorescence intensity: key to the marks not given beside the values
Settings: rat, in vivo
From the text: Mixtures of Nile Red fluorescent dye, were from Sigma Chemical Co., St. […] All mixtures were filtered through a 0.2 micron Millipore filter, available from Millipore Corp., Bedford, Mass., to remove any undissolved Nile Red dye. […] Before the application of formulations, the hair of the rats was gently clipped with an electric clipper on their dorsal areas. […] The amount of Nile Red delivered is evidenced by the intensity of the orange-red fluorescence depicted in the photomicrographs. […] Orange-red fluorescence due to Nile Red dye on the skin surface (stratum corneum) was not evaluated.

| Fluorescence intensity | Compound | Penetration of the skin and distribution in the pilosebaceous unit |
| --- | --- | --- |
| ++++ | Jojoba Oil | can penetrate the skin through the opening of the hair follicle and distribute itself throughout the hair shaft and sebaceous gland |
| +++ | C[S+](C)[O-] [DMSO, Dimethyl Sulfoxide, reference compound] |  |
